Test results taken from paper PMC9919490, “Synthesis and Biological Evaluation of Novel Dispiro-Indolinones with Anticancer Activity” (Molecules, 2023).

Columns and labels:
[1] = test system: PC3 cells; assay: MTT cytotoxicity assay, PC3 (p53 neg); format: cell-based; details: 48 h
Experimental: (§1) The synthesized compounds were tested for their ability to block the proliferation of the selected model cell lines: LNCaP (p53+), PC3 (p53-), HCT^wt (p53+), and HCT^−/− (p53-) cells. The assay was carried out using the standard MTT (3-(4,5-dimethylthiazol-2-yl)2,5-diphenyl tetrazolium bromide) assay based on the modified approach reported by Ferrari and colleagues. […] Differences in IC50 values against these cell lines were used to assess the selectivity of the compounds.
(§2) Model cell lines were purchased from the in stock collection of the N.N. Blokhin Russian Cancer Research Center (RAMS). Cells were accurately maintained in the recommended media, supplemented with 10% heat-inactivated FBS (Invitrogen) and 2 mmol/L L-glutamine (Invitrogen).
(§3) First, 4000 cells per well were plated out in 140 µL of DMEM (with 10% FBS) in 96-well plates and incubated in 5% CO2 for 24 h at 37 °C without treatment. […] The cells were treated for 48 h with […] (eight dilutions) concentrations of the substances (each in triplicate) or doxorubicin (0.3 nM–600 nM, eight dilutions) as a control substance. After the incubation, 15 µL of MTT solution in PBS (5 mg/mL) was added, and the cells were incubated for 2 h, followed by removal of the media and addition of 120 µL of DMSO. […] Cell survival rates were determined by the comparison of optical density with the corresponding untreated control cell culture. Dose-dependent curves and the corresponding IC50 values were calculated using “GraphPad Prism 6” software (GraphPad Software, Inc., San Diego, CA, USA).

[2] = test system: HCT^wt cells; assay: MTT cytotoxicity assay, HCT^wt (p53 pos); format: cell-based; details: 48 h
Experimental: as §1, §2, §3

[3] = test system: HCT^−/− cells; assay: MTT cytotoxicity assay, HCT^−/− (p53 neg); format: cell-based; details: 48 h
Experimental: as §1, §2, §3

[4] = test system: p53, PUMA, CASPASE-3 in HCTwt cells; assay: Western blot, p53 and p53-dependent apoptosis proteins; format: cell-based; details: HCTwt cell culture, increasing concentration; nutlin-3a 20 µM positive control
Experimental: To verify the mechanism of cytotoxic action of the synthesized dispiro-indolinones, Western blot testing of dispiro-indolinone 29 was performed using the p53-expressing HCTwt and LNCaP cell lines. Both the p53 protein and the proteins involved in the p53-dependent process of apoptosis (i.e., BAX, NOXA, and PUMA) were determined. For comparison, similar testing was carried out for a cell line not expressing p53 (HCT^(−/−)).

[5] = test system: MDM2; details: binding to MDM2; cited from earlier work
[6] = test system: LNCaP; details: MTT assay; cited from earlier work
[7] = test system: HCT116; details: dye assay, sulforhodamine B; cited from earlier work
[8] = test system: PC3 cells; set-up: method as in earlier work; details: dye assay with sulforhodamine B; cited from earlier work
[9] = test system: LNCaP cells; assay: MTT cytotoxicity assay, LNCaP (p53 pos); format: cell-based; details: 48 h
Experimental: as §1, §2, §3

[10] = test system: HCT116p53−/−; assay: Mechanism of cell death, flow cytometry 7AAD/annexin V, HCT116p53−/−; format: cell-based; details: 7AAD/annexin V staining
[11] = test system: HCT116wt; assay: Mechanism of cell death, flow cytometry 7AAD/annexin V, HCT116wt; format: cell-based; details: 7AAD/annexin V staining
[12] = test system: PC3; assay: Mechanism of cell death, flow cytometry 7AAD/annexin V, PC3; format: cell-based; details: 7AAD/annexin V staining

| Structure (SMILES) | IC50 [1] | IC50 [2] | IC50 [3] | concentration / expression of the p53 protein [4] | IC50 [5] | CC50 [6] | CC50 [7] | CC50 [8] | IC50 [9] | mechanism of cell death [10] | mechanism of cell death [11] | mechanism of cell death [12] |
| --- | --- | --- | --- | --- | --- | --- | --- | --- | --- | --- | --- | --- |
| COc1ccc(C2=N[C@@H](c3ccc(Cl)cc3)[C@@H](c3ccc(Cl)cc3)N2C(=O)N2CCNC(=O)C2)c(OC(C)C)c1 [Nutlin-3a, reference compound] | 28.9 ± 3.7 µM | 4.5 ± 1.3 µM | > 100 µM | […] | […] | 1.5 µM | 4.63 ± 0.78 µM | 6.37 ± 1 µM |  |  |  |  |
| CN1C[C@H](c2ccc(Cl)cc2)[C@]2(NC(=S)N(c3ccccc3)C2=O)[C@]12C(=O)Nc1ccc(Br)cc12 (racemic) [Compound 13] | 11.3 ± 1.2 µM | 3.5 ± 1.2 µM | > 100 µM |  |  |  |  |  | 1.2 ± 0.6 µM | necrosis/late apoptosis | early apoptosis | early apoptosis |
